Laboratory results reported in article PMC6272684, “Synthesis, Antiproliferative and Antifungal Activities of 1,2,3-Triazole-Substituted Carnosic Acid and Carnosol Derivatives” (Molecules, 2015).
Each block holds one compound with its values, some of them ahead of it.

Assays:
C. neoformans ATCC 32264 = assay: Antifungal broth microdilution (CLSI M27-A3), growth inhibition; format: cell-based, Cryptococcus neoformans; conditions: for MIC50 (minimum concentration to inhibit 50% of fungal growth), C. neoformans: C. neoformans ATCC 32264
Protocol: (§1) The antifungal properties of compounds 1–24 against two clinical important fungal species, C. albicans ATCC 10231 and C. neoformans ATCC 32264 were investigated. Results were expressed as the percentages of inhibition of each fungus in the range 250–3.9 μg∙mL^−1 by using the standardized microbroth dilution method M-27A3 of Clinical and Laboratory Standards Institute which assures reliable and reproducible results.
(§2) For the antifungal evaluation, standardized strains from the American Type Culture Collection (ATCC), Rockville, MD, USA, were used. The microorganisms included yeasts (Candida albicans ATCC 10231 and Cryptococcus neoformans ATCC 32264). Strains were grown on Sabouraud-chloramphenicol agar slants for 48 h at 30 °C, maintained on slopes of Sabouraud-dextrose agar (SDA, Oxoid), and subcultured every 15 days to prevent pleomorphic transformations. Inocula of cell or spore suspensions were obtained according to reported procedures and adjusted to 1–5 × 10^3 cells/spores with colony forming units (CFU)/mL [29].
(§3) Broth microdilution techniques were performed in 96-well microplates according to the Clinical and Laboratory Standards Institute Reference Method for Broth Dilution Antifungal Susceptibility Testing of Yeasts, Approved Standard M27-A3 [29]. For the assay, compound test wells (CTWs) were prepared with stock solutions of each compound in DMSO (maximum concentration ≤1%), diluted with RPMI-1640, to final concentrations of 250–3.9 μg∙mL^−1. An inoculum suspension (100 μL) was added to each well (final volume in the well = 200 μL). A growth control well (GCW) (containing medium, inoculum, and the same amount of DMSO used in a CTW, but compound-free) and a sterility control well (SCW) (sample, medium, and sterile water instead of inoculum) were included for each fungus tested. Microtiter trays were incubated in a moist, dark chamber at 30 °C for 48 h for both yeasts. Microplates were read in a VERSA Max microplate reader (Molecular Devices, Sunnyvale, CA, USA). Amphotericin B (Sigma-Aldrich) was used as positive control. Tests were performed in triplicate. Reduction of growth for each compound concentration was calculated as follows: % of inhibition = 100 − (OD 405 CTW − OD 405 SCW)/(OD 405 GCW − OD 405 SCW). The means ± SEM were the results of triplicate tests. Three endpoints were defined from the assay explained above and the dose-response curves. Minimum Inhibitory concentration (MIC) resulting in total fungal growth inhibition was named MIC100 while MIC50 was defined as the minimum concentration that inhibits 50% of the fungal growth.

C. albicans ATCC 10231 = assay: as above; format: cell-based, Candida albicans; conditions: for MIC50 (minimum concentration to inhibit 50% of fungal growth), C. albicans: C. albicans ATCC 10231
Protocol: as §1, §2, §3

MIC50 (minimum concentration to inhibit 50% of fungal growth), C. neoformans (C. neoformans ATCC 32264): 250 µg/mL | MIC50 (minimum concentration to inhibit 50% of fungal growth), C. albicans (C. albicans ATCC 10231): >250 µg/mL
SMILES: COC(=O)C12CCCC(C)(C)C1CCc1cc(C(C)C)c(OC(=O)CCCc3cn(CSc4ccccc4)nn3)c(OC(=O)CCCc3cn(CSc4ccccc4)nn3)c12 (stereo not drawn) [Compound 10, Methyl(11,12-O-(4-(((1-phenylthio)methyl)-1H-1,2,3-triazol-4-yl)-butanoyloxy)-abieta-8,11,13-triene)-20-oate]
Inhibition percentage against C. neoformans ATCC 32264 (C. neoformans ATCC 32264; 3.9 μg∙mL^−1, 48 h): 0.0% | Inhibition percentage against C. neoformans ATCC 32264 (C. neoformans ATCC 32264; 7.8 μg∙mL^−1, 48 h): 11.3 ± 0.5% | Inhibition percentage against C. neoformans ATCC 32264 (C. neoformans ATCC 32264; 15.6 μg∙mL^−1, 48 h): 14.4 ± 0.8% | Inhibition percentage against C. neoformans ATCC 32264 (C. neoformans ATCC 32264; 31.2 μg∙mL^−1, 48 h): 18.6 ± 1.5% | Inhibition percentage against C. neoformans ATCC 32264 (C. neoformans ATCC 32264; 62.5 μg∙mL^−1, 48 h): 19.1 ± 1.8% | Inhibition percentage against C. neoformans ATCC 32264 (C. neoformans ATCC 32264; 125 μg∙mL^−1, 48 h): 42.9 ± 2.0% | Inhibition percentage against C. neoformans ATCC 32264 (C. neoformans ATCC 32264; 250 μg∙mL^−1, 48 h): 63.9 ± 2.9% | Inhibition percentage against C. albicans ATCC 10231 (C. albicans ATCC 10231; 3.9 μg∙mL^−1, 48 h): 1.3 ± 1.3% | Inhibition percentage against C. albicans ATCC 10231 (C. albicans ATCC 10231; 7.8 μg∙mL^−1, 48 h): 2.8 ± 0.1% | Inhibition percentage against C. albicans ATCC 10231 (C. albicans ATCC 10231; 15.6 μg∙mL^−1, 48 h): 3.9 ± 0.9% | Inhibition percentage against C. albicans ATCC 10231 (C. albicans ATCC 10231; 62.5 μg∙mL^−1, 48 h): 10.1 ± 0.9% | Inhibition percentage against C. albicans ATCC 10231 (C. albicans ATCC 10231; 125 μg∙mL^−1, 48 h): 18.8 ± 0.4% | Inhibition percentage against C. albicans ATCC 10231 (C. albicans ATCC 10231; 250 μg∙mL^−1, 48 h): 35.0 ± 0.8% | Inhibition percentage against C. albicans ATCC 10231 (C. albicans ATCC 10231; 31. μg∙mL^−1, 48 h): 5.1 ± 1.3%

MIC50 (minimum concentration to inhibit 50% of fungal growth), C. neoformans (C. neoformans ATCC 32264): 125 µg/mL | MIC50 (minimum concentration to inhibit 50% of fungal growth), C. albicans (C. albicans ATCC 10231): 250 µg/mL
SMILES: COC(=O)C12CCCC(C)(C)C1CCc1cc(C(C)C)c(OC(=O)CCCc3cn(Cc4ccccc4)nn3)c(OC(=O)CCCc3cn(Cc4ccccc4)nn3)c12 (stereo not drawn) [Compound 12, Methyl(11,12-O-(4-(1-benzyl-1H-1,2,3-triazol-4-yl)-butanoyloxy)-abieta-8,11,13-triene)-20-oate]
Inhibition percentage against C. neoformans ATCC 32264 (C. neoformans ATCC 32264; 3.9 μg∙mL^−1, 48 h): 0.0% | Inhibition percentage against C. neoformans ATCC 32264 (C. neoformans ATCC 32264; 7.8 μg∙mL^−1, 48 h): 0.0% | Inhibition percentage against C. neoformans ATCC 32264 (C. neoformans ATCC 32264; 15.6 μg∙mL^−1, 48 h): 7.7 ± 1.6% | Inhibition percentage against C. neoformans ATCC 32264 (C. neoformans ATCC 32264; 31.2 μg∙mL^−1, 48 h): 9.6 ± 0.8% | Inhibition percentage against C. neoformans ATCC 32264 (C. neoformans ATCC 32264; 62.5 μg∙mL^−1, 48 h): 17.3 ± 0.2% | Inhibition percentage against C. neoformans ATCC 32264 (C. neoformans ATCC 32264; 125 μg∙mL^−1, 48 h): 67.5 ± 0.7% | Inhibition percentage against C. neoformans ATCC 32264 (C. neoformans ATCC 32264; 250 μg∙mL^−1, 48 h): 63.1 ± 2.1% | Inhibition percentage against C. albicans ATCC 10231 (C. albicans ATCC 10231; 3.9 μg∙mL^−1, 48 h): 3.4 ± 0.3% | Inhibition percentage against C. albicans ATCC 10231 (C. albicans ATCC 10231; 7.8 μg∙mL^−1, 48 h): 3.6 ± 0.4% | Inhibition percentage against C. albicans ATCC 10231 (C. albicans ATCC 10231; 15.6 μg∙mL^−1, 48 h): 5.6 ± 1.9% | Inhibition percentage against C. albicans ATCC 10231 (C. albicans ATCC 10231; 62.5 μg∙mL^−1, 48 h): 14.9 ± 1.1% | Inhibition percentage against C. albicans ATCC 10231 (C. albicans ATCC 10231; 125 μg∙mL^−1, 48 h): 27.9 ± 0.1% | Inhibition percentage against C. albicans ATCC 10231 (C. albicans ATCC 10231; 250 μg∙mL^−1, 48 h): 50.0 ± 5.0% | Inhibition percentage against C. albicans ATCC 10231 (C. albicans ATCC 10231; 31. μg∙mL^−1, 48 h): 9.3 ± 2.6%

MIC50 (minimum concentration to inhibit 50% of fungal growth), C. neoformans (C. neoformans ATCC 32264): >250 µg/mL | MIC50 (minimum concentration to inhibit 50% of fungal growth), C. albicans (C. albicans ATCC 10231): >250 µg/mL
SMILES: COC(=O)C12CCCC(C)(C)C1CCc1cc(C(C)C)c(OC(=O)CCc3cn(Cc4ccc(Br)cc4)nn3)c(OC(=O)CCc3cn(Cc4ccc(Br)cc4)nn3)c12 (stereo not drawn) [Compound 13, Methyl(11,12-O-(3-(1-(4-bromobenzyl)-1H-1,2,3-triazol-4-yl)-propanoyloxy)-abieta-8,11,13-triene)-20-oate]
Inhibition percentage against C. neoformans ATCC 32264 (C. neoformans ATCC 32264; 3.9 μg∙mL^−1, 48 h): 5.8 ± 0.6% | Inhibition percentage against C. neoformans ATCC 32264 (C. neoformans ATCC 32264; 7.8 μg∙mL^−1, 48 h): 10.0 ± 1.0% | Inhibition percentage against C. neoformans ATCC 32264 (C. neoformans ATCC 32264; 15.6 μg∙mL^−1, 48 h): 13.3 ± 0.3% | Inhibition percentage against C. neoformans ATCC 32264 (C. neoformans ATCC 32264; 31.2 μg∙mL^−1, 48 h): 13.7 ± 0.6% | Inhibition percentage against C. neoformans ATCC 32264 (C. neoformans ATCC 32264; 62.5 μg∙mL^−1, 48 h): 16.3 ± 1.1% | Inhibition percentage against C. neoformans ATCC 32264 (C. neoformans ATCC 32264; 125 μg∙mL^−1, 48 h): 16.8 ± 1.8% | Inhibition percentage against C. neoformans ATCC 32264 (C. neoformans ATCC 32264; 250 μg∙mL^−1, 48 h): 25.7 ± 0.5% | Inhibition percentage against C. albicans ATCC 10231 (C. albicans ATCC 10231; 3.9 μg∙mL^−1, 48 h): 0.0% | Inhibition percentage against C. albicans ATCC 10231 (C. albicans ATCC 10231; 7.8 μg∙mL^−1, 48 h): 0.6 ± 0.1% | Inhibition percentage against C. albicans ATCC 10231 (C. albicans ATCC 10231; 15.6 μg∙mL^−1, 48 h): 1.3 ± 0.3% | Inhibition percentage against C. albicans ATCC 10231 (C. albicans ATCC 10231; 62.5 μg∙mL^−1, 48 h): 6.7 ± 0.1% | Inhibition percentage against C. albicans ATCC 10231 (C. albicans ATCC 10231; 125 μg∙mL^−1, 48 h): 10.7 ± 0.3% | Inhibition percentage against C. albicans ATCC 10231 (C. albicans ATCC 10231; 250 μg∙mL^−1, 48 h): 17.6 ± 0.2% | Inhibition percentage against C. albicans ATCC 10231 (C. albicans ATCC 10231; 31. μg∙mL^−1, 48 h): 4.3 ± 0.4%
